# ChEMBL document CHEMBL1201862, “PubChem BioAssay data set” (2004)
#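 48-hour exposure; five concentrations; linearly interpolated endpoints. At the GI50, growth is halved.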 The source made the active and inactive calls. No stated cut-off is given here; in the data, active = GI50 up to about 1.1 µM and inactive = higher. Non-standard residues stand in square brackets, D forms with d. Residues, ends and D or L forms follow the SMILES beside them. ξ: configuration not given here. Pen = CC(C)(S)[C@H](N)C(=O)O; ξL = CC(C)CC(N)C(=O)O
# What was measured:
# Assay in all cases: growth of human tumour cells (NCI), 48 h
# [1] = test system: EKVX
# [2] = test system: HCC 2998
# [3] = test system: HCT-116
# [4] = test system: HT-29
# [5] = test system: KM12
# [6] = test system: Malme-3M
# [7] = test system: OVCAR-5
# [8] = test system: OVCAR-8
# [9] = test system: SF-268
# [10] = test system: SF-295
# [11] = test system: SF-539
# [12] = test system: SK-MEL-2
# [13] = test system: SK-MEL-5
# [14] = test system: SK-OV-3
# [15] = test system: SN12C
# [16] = test system: SNB-75
# [17] = test system: U-251
# [18] = test system: UACC-257
# [19] = test system: UACC-62
# [20] = test system: UO-31
SMILES,GI50 [1],GI50 [2],GI50 [3],GI50 [4],GI50 [5],GI50 [6],GI50 [7],GI50 [8],GI50 [9],GI50 [10],GI50 [11],GI50 [12],GI50 [13],GI50 [14],GI50 [15],GI50 [16],GI50 [17],GI50 [18],GI50 [19],GI50 [20]
CCOC(=O)C(=O)NC12CC3CC(CC(C3)C1)C2,> 100 µM (inactive),> 100 µM (inactive),> 100 µM (inactive),> 100 µM (inactive),> 100 µM (inactive),> 100 µM (inactive),> 100 µM (inactive),> 100 µM (inactive),> 100 µM (inactive),> 100 µM (inactive),> 100 µM (inactive),> 100 µM (inactive),> 100 µM (inactive),> 100 µM (inactive),> 100 µM (inactive),> 100 µM (inactive),> 100 µM (inactive),> 100 µM (inactive),> 100 µM (inactive),> 100 µM (inactive)
CN(C)CCNC(=O)c1cc(Cl)cc2cc3ccccc3nc12,1.43 µM (inactive),1.39 µM (inactive),0.445 µM (active),0.455 µM (active),1.17 µM (inactive),5.73 µM (inactive),1.15 µM (inactive),0.542 µM (active),1.22 µM (inactive),0.492 µM (active),1.62 µM (inactive),1.98 µM (inactive),1.31 µM (inactive),2.21 µM (inactive),0.731 µM (active),2.27 µM (inactive),1.64 µM (inactive),1.6 µM (inactive),0.652 µM (active),1.02 µM (active)
COC(=O)C1C(O)C(C)C(O)C(C)(O)/C=C\C=C(C)C(=O)Nc2c(C)c(OC(C)=O)c3c(c2O)C(=O)C(C)=C2OCOC(=C23)C(C)=CC(C)(O)C(O)C(C)C1OC(C)=O (stereo not given),34.1 µM (inactive),34.4 µM (inactive),21.4 µM (inactive),45.4 µM (inactive),26.7 µM (inactive),28.9 µM (inactive),> 100 µM (inactive),49.3 µM (inactive),46.6 µM (inactive),80.4 µM (inactive),41.2 µM (inactive),19.6 µM (inactive),30.3 µM (inactive),> 95.1 µM (inactive),24 µM (inactive),31 µM (inactive),57.4 µM (inactive),26.1 µM (inactive),21.1 µM (inactive),> 100 µM (inactive)
O=C1C=C/C(=C/[C@H]2SSC=C[C@]23C=CC(=O)C3)C1,17.5 µM (inactive),20.6 µM (inactive),7.36 µM (inactive),11 µM (inactive),21.3 µM (inactive),16.9 µM (inactive),13 µM (inactive),25.9 µM (inactive),26.5 µM (inactive),30.7 µM (inactive),12.2 µM (inactive),20 µM (inactive),16.9 µM (inactive),49.7 µM (inactive),19.3 µM (inactive),33.7 µM (inactive),28.5 µM (inactive),28.1 µM (inactive),18 µM (inactive),14.8 µM (inactive)
CCOC(=O)CNC(=O)NC12CC3CC(CC(C3)C1)C2,191 µM (inactive),142 µM (inactive),156 µM (inactive),366 µM (inactive),150 µM (inactive),133 µM (inactive),432 µM (inactive),490 µM (inactive),284 µM (inactive),322 µM (inactive),203 µM (inactive),141 µM (inactive),131 µM (inactive),> 418 µM (inactive),219 µM (inactive),110 µM (inactive),269 µM (inactive),176 µM (inactive),125 µM (inactive),171 µM (inactive)
CCCCCCSc1nc(N)nc2nc[nH]c12,60.1 µM (inactive),> 55.5 µM (inactive),35.2 µM (inactive),34.4 µM (inactive),55.6 µM (inactive),35.7 µM (inactive),41.2 µM (inactive),42.5 µM (inactive),46.7 µM (inactive),59.6 µM (inactive),35.3 µM (inactive),18.4 µM (inactive),20.3 µM (inactive),28.8 µM (inactive),36.6 µM (inactive),17 µM (inactive),35.4 µM (inactive),37.7 µM (inactive),37 µM (inactive),24.3 µM (inactive)
c1ccc2c(c1)SCCc1cn[nH]c1-2,> 100 µM (inactive),> 100 µM (inactive),> 100 µM (inactive),> 100 µM (inactive),> 100 µM (inactive),> 100 µM (inactive),> 100 µM (inactive),> 100 µM (inactive),> 100 µM (inactive),> 100 µM (inactive),> 100 µM (inactive),> 100 µM (inactive),> 100 µM (inactive),> 100 µM (inactive),> 100 µM (inactive),> 92.5 µM (inactive),> 100 µM (inactive),> 100 µM (inactive),> 100 µM (inactive),> 100 µM (inactive)
CC(=O)OCC1OC(Nc2ncc(-c3ccc(C)cc3)s2)C(OC(C)=O)C(OC(C)=O)C1OC(C)=O (stereo not given),54 µM (inactive),23.3 µM (inactive),26.6 µM (inactive),29.2 µM (inactive),36.1 µM (inactive),61.5 µM (inactive),38.1 µM (inactive),39.7 µM (inactive),45.5 µM (inactive),43.2 µM (inactive),43.8 µM (inactive),34 µM (inactive),33.3 µM (inactive),68.4 µM (inactive),25.4 µM (inactive),39 µM (inactive),56.8 µM (inactive),25.6 µM (inactive),27 µM (inactive),19.8 µM (inactive)
COc1ccc2c(c1)c1c(n2CCN(C)C)-c2ccccc2CC1,9.77 µM (inactive),18.2 µM (inactive),15.2 µM (inactive),7.78 µM (inactive),14.4 µM (inactive),20.3 µM (inactive),18.2 µM (inactive),16.9 µM (inactive),18.1 µM (inactive),16.9 µM (inactive),14 µM (inactive),16.1 µM (inactive),14.9 µM (inactive),20.2 µM (inactive),14.1 µM (inactive),13.7 µM (inactive),13.1 µM (inactive),16.3 µM (inactive),14.5 µM (inactive),13.5 µM (inactive)
C=CC1(c2ccccc2Cl)N/C(=C/OCC)CO1 (stereo not given),> 100 µM (inactive),> 100 µM (inactive),90.2 µM (inactive),> 100 µM (inactive),> 100 µM (inactive),> 100 µM (inactive),> 100 µM (inactive),> 100 µM (inactive),> 100 µM (inactive),> 100 µM (inactive),> 100 µM (inactive),> 100 µM (inactive),> 100 µM (inactive),> 100 µM (inactive),> 100 µM (inactive),36.6 µM (inactive),> 100 µM (inactive),> 100 µM (inactive),> 100 µM (inactive),> 100 µM (inactive)
Cc1cc(O)c2c(c1O)C(=O)C13C(=C(O)C4C(O)C1C1C(O)C3C(O)=C3C(=O)c5c(O)cc(C)c(O)c5C(=O)C341)C2=O (stereo not given),0.0845 µM (active),0.032 µM (active),0.0342 µM (active),0.0451 µM (active),0.0726 µM (active),0.0428 µM (active),0.778 µM (active),0.0615 µM (active),0.0542 µM (active),0.03 µM (active),0.134 µM (active),0.172 µM (active),0.15 µM (active),0.0378 µM (active),0.0471 µM (active),0.0499 µM (active),0.0214 µM (active),0.267 µM (active),0.0489 µM (active),0.0392 µM (active)
CC12CCC(=O)[C@@]1(C)CCCC2O (stereo not given in full),> 100 µM (inactive),> 100 µM (inactive),> 100 µM (inactive),> 100 µM (inactive),> 100 µM (inactive),> 100 µM (inactive),> 100 µM (inactive),> 100 µM (inactive),> 100 µM (inactive),> 100 µM (inactive),> 100 µM (inactive),> 100 µM (inactive),> 100 µM (inactive),> 100 µM (inactive),> 100 µM (inactive),> 100 µM (inactive),> 100 µM (inactive),> 100 µM (inactive),> 100 µM (inactive),> 100 µM (inactive)
C[S+](C)CC1OC(n2cnc3c(N)ncnc32)C(O)C1O (stereo not given),> 225 µM (inactive),> 225 µM (inactive),> 225 µM (inactive),> 225 µM (inactive),> 225 µM (inactive),> 225 µM (inactive),> 225 µM (inactive),> 225 µM (inactive),> 225 µM (inactive),> 225 µM (inactive),> 225 µM (inactive),> 225 µM (inactive),> 225 µM (inactive),> 225 µM (inactive),> 178 µM (inactive),> 225 µM (inactive),> 225 µM (inactive),> 225 µM (inactive),> 96.2 µM (inactive),> 225 µM (inactive)
CSCC[C@H](NC(=O)C(CC(C)C)NC(=O)[C@H](Cc1c[nH]cn1)NC(=O)CNC(=O)[C@@H](NC(=O)[C@@H](C)NC(=O)[C@H](Cc1c[nH]c2ccccc12)NC(=O)[C@H](CCC(N)=O)NC(=O)[C@@H](N)CC(N)=O)C(C)(C)SC)C(N)=O (stereo not given in full) (H-NQW[dA][Pen](Me)GH[ξL]M-NH2),> 100 µM (inactive),> 100 µM (inactive),> 100 µM (inactive),> 100 µM (inactive),> 100 µM (inactive),> 100 µM (inactive),> 100 µM (inactive),> 100 µM (inactive),> 100 µM (inactive),> 100 µM (inactive),> 100 µM (inactive),> 100 µM (inactive),> 100 µM (inactive),> 100 µM (inactive),> 100 µM (inactive),> 100 µM (inactive),> 100 µM (inactive),> 100 µM (inactive),> 100 µM (inactive),> 100 µM (inactive)
